Experimental data as given in ChEMBL document CHEMBL1135957, “Novel 1',1'-chain substituted Delta(8)-tetrahydrocannabinols” (Bioorg Med Chem Lett, 2002).
pKi: −log10 of the molar value.

How the values were obtained:
Cannabinoid receptor 1 = Cannabinoid receptor 1 (Rattus norvegicus, UniProt P20272); assay: Binding affinity for Cannabinoid receptor 1 by the ability to displace radiolabeled CP-55940 from purified rat forebrain synaptosomes; assay type: subcellular, Brain
Cannabinoid receptor 2 = Cannabinoid receptor 2 (Mus musculus, UniProt P47936); assay: Binding affinity for Cannabinoid receptor 2 by the ability to displace radiolabeled CP-55940 from mouse spleen synaptosomes; assay type: subcellular
Sequence of Cannabinoid receptor 2 (P47936 whole entry): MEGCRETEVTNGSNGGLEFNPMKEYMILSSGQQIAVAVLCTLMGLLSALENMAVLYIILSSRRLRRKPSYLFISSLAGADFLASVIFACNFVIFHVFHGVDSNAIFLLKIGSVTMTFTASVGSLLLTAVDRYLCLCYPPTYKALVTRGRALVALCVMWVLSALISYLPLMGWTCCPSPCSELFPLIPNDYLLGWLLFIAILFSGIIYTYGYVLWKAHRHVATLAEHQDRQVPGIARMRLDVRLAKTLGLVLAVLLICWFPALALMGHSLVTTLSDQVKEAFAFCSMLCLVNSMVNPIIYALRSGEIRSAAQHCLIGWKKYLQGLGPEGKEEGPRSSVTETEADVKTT

Sequence of Cannabinoid receptor 1 (P20272 whole entry): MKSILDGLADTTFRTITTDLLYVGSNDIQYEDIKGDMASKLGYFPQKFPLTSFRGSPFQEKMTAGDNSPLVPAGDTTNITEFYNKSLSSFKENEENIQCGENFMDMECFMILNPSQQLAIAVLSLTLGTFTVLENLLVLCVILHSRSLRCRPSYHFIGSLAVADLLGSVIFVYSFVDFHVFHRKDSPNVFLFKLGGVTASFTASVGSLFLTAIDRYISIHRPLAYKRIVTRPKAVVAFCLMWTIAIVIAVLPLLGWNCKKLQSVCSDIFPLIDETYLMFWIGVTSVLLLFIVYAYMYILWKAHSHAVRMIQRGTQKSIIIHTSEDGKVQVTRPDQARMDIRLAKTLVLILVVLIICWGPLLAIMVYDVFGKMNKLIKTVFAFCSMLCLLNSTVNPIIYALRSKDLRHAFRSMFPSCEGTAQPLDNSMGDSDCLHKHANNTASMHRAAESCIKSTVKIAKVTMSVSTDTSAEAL

Compound	pKi (Cannabinoid receptor 1)	pKi (Cannabinoid receptor 2)
CCCCCCC1(c2cc(O)c3c(c2)OC(C)(C)[C@@H]2CC=C(C)C[C@@H]32)CC1(Br)Br (some centres not stated)	9.15	9.00
C=C(C)C1CCC(C)=CC1c1c(O)cc(C2(CCCCCC)CC2)cc1O (configuration not stated)	7.23	7.00
CCCCCCC1(c2cc(O)c3c(c2)OC(C)(C)[C@@H]2CC=C(C)C[C@@H]32)CC1(Cl)Cl (some centres not stated)	8.90	9.54
C=C(C)C1CCC(C)=CC1c1c(O)cc(C2(CCCCCC)CC2(Br)Br)cc1O (configuration not stated)	6.72	7.20
C=C(C)C1CCC(C)=CC1c1c(O)cc(C2(CCCCCC)CC2(Cl)Cl)cc1O (configuration not stated)	6.18	7.48
CCCCCCC1(c2cc(O)c3c(c2)OC(C)(C)[C@@H]2CC=C(C)C[C@@H]32)CC1	9.36	9.07
C=C(C)C1CCC(C)=CC1c1c(O)cc(C2(CCCCCC)SCCS2)cc1O (configuration not stated)	6.87	7.30
CCCCCCC(C)(C)c1cc(O)c2c(c1)OC(C)(C)[C@@H]1CC=C(C)C[C@@H]21	9.08	9.31
C=C(C)[C@@H]1CCC(C)=C[C@H]1c1c(O)cc(CCCCC)cc1O [CANNABIDIOL]		6.64
